What was measured:
Format in all cases: cell-based, rat
BAX = assay: Western blot of BAX expression in RNVCs; conditions: 6 h treatment
Method: (§1) Levels of protein expression of BCL-2 (FIG. 3A and FIG. 3B) BXL-XL (FIG. 3C) and BAX (FIG. 3C), in the RNVCs after 6 h of treatment (FIG. 3A, FIG. 3C, FIG. 3D) or 24 h (FIG. 3B). Co., untreated cell control. Each experiment was reproduced at least three times. Representative western blotting images and quantification of three independent experiments are presented as mean±SEM with single-factor ANOVA, with multiple Sidak comparisons. *, p<0.05 with respect to DMSO.
(§2) The H9C2 cells and RNVCs were detached in LB containing: 50 mM Tris, 150 mM NaCl, 1 mM EDTA, 0.5% deoxycholate, 1% Triton X 100, 0.1% SDS (pH 8.0). The cells were collected and placed on ice for 30 minutes. The cells were then centrifuged at 2000 g for 20 minutes at for 4° C. The supernatant was transferred to a new tube and stored on ice. The protein concentration was determined by BCA assay. The protein samples were diluted with sample buffer (2× Laemmli, Sigma), mixed, and heated for 5 minutes at 95° C. […] The images were recorded with a gel imaging system (Bio Rad). […]

LC3II = assay: LC3 I/II conversion by western blot in RNVCs; conditions: 1 μM
Method: FIG. 4E: LC3-I/II protein levels in the RNVCs. Data are presented as mean±SEM with single-factor ANOVA, and multiple Sidak comparisons. *, p<0.05, **, p<0.01 with respect to DMSO.
as §2
Next, the hypothesis that the compounds could protect cardiac cells by activating autophagy, a catabolic process conserved in evolution that involves the degradation of damaged cytoplasmic components, was formulated. […] Then, the cells were treated with the hits and with H2O2 for 2 hours and their survival was analyzed 4 hours later by measuring LDH release (FIGS. 4B, 4C). […] In order to confirm the induction of autophagy by another approach, the RNVCs were transfected with a GFP-LC3 plasmid and the formation of the autophagosome was monitored 24 hours later. […]

DRP-1 = assay: Western blot of DRP-1 phosphorylation (Ser616) in RNVCs
Method: FIG. 6D: Drp-1 and P-Drp-1 and MFN2 protein levels in RNVCs analyzed by western blotting. *, p<0.05, **, p<0.01, ***, p<0.001 with respect to DMSO. The experiments were reproduced 3 times. Representative western blotting images and quantification of three independent experiments are presented as mean±SEM with single-factor ANOVA, and multiple Sidak comparisons.
as §2
(§3) Due to the importance of mitochondria and reactive oxygen species (ROS) levels in the fate of cardiomyocyte cells, the hypothesis that the compounds could impact the mitochondrial network was explored. […] Thus, the mitochondrial network and the individual mitochondria were then analyzed using the IMARIS software.

H9C2 cells = assay: Mitochondrial morphology and abundance by transmission electron microscopy; conditions: compared to DMSO; for mitochondrial number, size and morphology by transmission electron microscopy: 1 μM
Method: The cells were treated with a vehicle (0.01% DMSO), 1 μM digoxin, 1 μM SG6163F, 10 μM SG6163F, fixed with glutaraldehyde and analyzed by transmission electron microscopy. The cells treated with digoxin and with 10 μM SG6163F have many shorter round mitochondria compared with the control which has long thin mitochondria (FIG. 7B, FIG. 7D versus FIG. 7A).
Transmission electron microscopy. For ultrastructural analysis, the cells were fixed in 1.6% glutaraldehyde in a 0.1 M phosphate buffer, rinsed in a 0.1 M cacodylate buffer, and post-fixed for 1 h in 1% osmium tetroxide and 1% potassium ferrocyanide in a 0.1 M cacodylate buffer to improve the coloration of the membranes. The cells were rinsed in distilled water, dehydrated in alcohols and finally embedded in epoxy resin. Contrasting ultrafine sections (70 nm) were analyzed under a JEOL 1400 transmission electron microscope with a Morada Olympus CCD camera.
Due to the importance of mitochondria and reactive oxygen species (ROS) levels in the fate of cardiomyocyte cells, the hypothesis that the compounds could impact the mitochondrial network was explored. Following treatment of the RNVCs with the compounds tested, the mitochondrial network was stained with 200 nM of Mitotracker and the cell volume with 4 μM of calcein-AM. Thus, the mitochondrial network and the individual mitochondria were then analyzed using the IMARIS software.

MFN1 = assay: Western blot of MFN1 in RNVCs
Method: (§4) FIG. 6C: MFN1 and MFN2 protein levels in RNVCs analyzed by western blotting.
as §2, §3

MFN2 = assay: Western blot of MFN2 in RNVCs
Method: as §4, §2, §3

BCL-XL = assay: Western blot of BCL-XL expression in RNVCs; conditions: 6 h treatment
Method: as §1, §2

Compound	expression of pro-apoptotic BAX protein (BAX)	increase in level of expression of LC3II (LC3II) [fold]	phosphorylation of DRP-1 at Ser616, (DRP1-P)/(DRP-1 total) ratio (DRP-1)	mitochondrial number, size and morphology by transmission electron microscopy (H9C2 cells)	mitochondrial number and size by transmission electron microscopy (H9C2 cells; 10 μM)	expression of fusion protein MFN1 (MFN1)	expression of fusion protein MNF2 (MFN2)	expression of BCL-XL (BCL-XL)
O=C1NC(c2ccccc2)=N/C1=C\c1cc2ccccc2c2ccccc12 [SG6163F]	significantly decreased	> 1.5	stimulated fission by phosphorylation of DRP-1	did not affect the morphology of the mitochondria	increase in the number of mitochondria and a decrease in their size	–	–	–
C[C@]12CC[C@H](O)C[C@H]1CC[C@@H]1[C@@H]2CC[C@]2(C)[C@@H](C3=CC(=O)OC3)CC[C@]12O [digitoxigenin]	–	–	–	–	–	decreased	decreased	–
C[C@H]1O[C@@H](O[C@H]2[C@@H](O)C[C@H](O[C@H]3[C@@H](O)CC(O[C@H]4CC[C@@]5(C)[C@H](CC[C@@H]6[C@@H]5C[C@@H](O)[C@]5(C)[C@@H](C7=CC(=O)OC7)CC[C@]65O)C4)O[C@@H]3C)O[C@@H]2C)C[C@H](O)[C@@H]1O (stereo partly shown) [digoxin]	significantly decreased	–	stimulated fission by phosphorylation of DRP-1	increase in the number of mitochondria and a decrease in their size	–	decreased	decreased	caused a decrease

Reference: US20240226066A1, “CARDIOPROTECTION BY AUTOPHAGY INDUCTION AND METABOLIC REPROGRAMMING” (UNIVERSITE PARIS-SACLAY, priority 2021, published 2024)
